Experimental data as given in patent publication US20230116399A1, “Tumor Homing Statin Derivatives” (Da Zen Theranostics, Inc., priority 2019, published 2023).

Columns and labels:
[1] = test system: RhoA/B in H-1975 human lung cancer tumors; test: RhoA/B membrane staining of tumor tissue, H-1975 mouse model; format: in vivo, mice; settings: 5 mg/kg
Method: RhoA/RhoB membrane staining of tumor tissue of a H-1975 human lung cancer cell mouse model is performed as described below, and the tumor-bearing mice are treated with a THSD (here an ALSD of formula FIId, “DZ2a”, compound 7) in comparison to the corresponding unconjugated dye (“DZ1”) and to Gefinitib (an EGFR inhibitor drug used for treatment of certain breast, lung and other cancers).
H-1975 cells, a cell model for human lung cancer that is resistant to Gefitinib (an EGFR inhibitor drug used for treatment of certain breast, lung and other cancers) are cultured as described above and injected subcutaneously into mice to develop tumors. The mice and the tumors that are formed are systemically exposed to an ALSD (here of formula FIId, “DZ2a”, compound 7) by intravenous injection. The tumor-bearing mice are treated with either Gefitinib (20 mg/kg), or with an ALSD (here of formula FIId, “DZ2a”, compound 7, 5 mg/kg), an unconjugated dye of formula III (“DZ1”, 5 mg/kg) or a combination of the ALSD with Gefitinib.
For immunostaining of tumor tissue, the animals are sacrificed by prescribed and approved euthanasia techniques. Tumor tissue (maximum thickness 3 mm) is sliced, formalin fixated, embedded into paraffin blocks which are sectioned and processed into paraffin section slides. […]

[2] = test system: 22RV1 prostate cancer cells; test: Cholesterol levels in whole cells and mitochondria (LC-SIM); format: cell-based, human
Method: Example 3E: Whole cells and mitochondria are prepared/treated as follows. 22RV1 prostate cancer cells are cultured as described herein-above. The cells are harvested, treated with Lithium dodecyl sulfate (LDS) detergent, then a whole cell fraction and an isolated mitochondrial fraction provided by centrifugation and the pellets are processed to determine their cholesterol levels as follows: cholesterol is extracted with hexane/methanol mixture (7:1, v/v), into which an appropriate amount of stable isotope-labeled d7-cholesterol standard (Avanti Polar Lipids) is spiked. Samples are sonicated in a water-bath, vortexed, and centrifuged at 16,000×g for 5 min at RT. The upper layers are dried down in a SpeedVac at RT. Then samples are incubated with 200 μL 10 mg/mL 4-(dimethylamino)phenyl isocyanate (DMAPI) in dichloromethane and 30 μL triethylamine at 65° C. for 1.5 h in a ThermoMixer. The reaction is quenched by phosphate buffer (pH 8.0), followed by extraction of DMAPI-labeled cholesterol with hexane and vacuum concentration in a SpeedVac. The dry residues are reconstituted in acetonitrile/isopropanol (1:1) and analyzed by liquid chromatography-selected ion monitoring (LC-SIM) using an Ultimate 3000 XRS liquid chromatography system connected to an Orbitrap Fusion Lumos mass spectrometer (Thermo Scientific). Following separation on a 5-cm Hypersil GOLD C18 column, DMAPI-derivatized endogenous cholesterol (m/z 549.442) and d7-cholesterol (m/z 556.485) are analyzed by time-scheduled SIM analysis on an Orbitrap Fusion Lumos. The acquired LC-SIM data are analyzed by Skyline for cholesterol quantification.

Compound	RhoA/B staining of tumor cell membranes [1]	Cholesterol, mitochondria ([2]; mitochondrial fraction)	Cholesterol, mitochondria, relative to vehicle control (100%) ([2]; mitochondrial fraction) [%]	Cholesterol, mitochondria, relative to vehicle control (100%) ([2]; mitochondrial fraction, listed as SIM)	Cholesterol, whole cells ([2]; whole cells)	Cholesterol, whole cells, relative to vehicle control (100%) ([2]; whole cells) [%]	Cholesterol, whole cells, relative to vehicle control (100%) ([2]; whole cells, listed as SIM)
CC1(C)C(/C=C/C2=C(Cl)C(=C/C=C3/N(CCCCCC(=O)O)c4ccccc4C3(C)C)/CCC2)=[N+](CCCCS(=O)(=O)[O-])c2ccccc21 [DZ1]	staining persists in the membranes						
CCC(C)(C)C(=O)O[C@H]1C[C@@H](C)C=C2C=C[C@H](C)[C@H](CC[C@@H]3C[C@@H](O)CC(=O)O3)[C@H]21 [Simvastatin]		56 nmol Cholesterol per 10^7 cells	51	(51%)	102 nmol Cholesterol per 10^6 cells	88	(88%)
